The values below come from patent US20100292224A1, “ISOTHIAZOLIDINE 1,1-DIOXIDE AND TETRAHYDRO-2H-1,2-THIAZINE 1,1-DIOXIDE DERIVATIVES AS P2X7 MODULATORS” (GLAXO GROUP LIMITED, priority 2007, published 2010).

The structures appear in SMILES notation.

The assay has as its target T1, human recombinant P2X7 receptors (Homo sapiens, UniProt Q99572).
T1 construct: expressed in transfected cells
T1 sequence (Q99572 1-595): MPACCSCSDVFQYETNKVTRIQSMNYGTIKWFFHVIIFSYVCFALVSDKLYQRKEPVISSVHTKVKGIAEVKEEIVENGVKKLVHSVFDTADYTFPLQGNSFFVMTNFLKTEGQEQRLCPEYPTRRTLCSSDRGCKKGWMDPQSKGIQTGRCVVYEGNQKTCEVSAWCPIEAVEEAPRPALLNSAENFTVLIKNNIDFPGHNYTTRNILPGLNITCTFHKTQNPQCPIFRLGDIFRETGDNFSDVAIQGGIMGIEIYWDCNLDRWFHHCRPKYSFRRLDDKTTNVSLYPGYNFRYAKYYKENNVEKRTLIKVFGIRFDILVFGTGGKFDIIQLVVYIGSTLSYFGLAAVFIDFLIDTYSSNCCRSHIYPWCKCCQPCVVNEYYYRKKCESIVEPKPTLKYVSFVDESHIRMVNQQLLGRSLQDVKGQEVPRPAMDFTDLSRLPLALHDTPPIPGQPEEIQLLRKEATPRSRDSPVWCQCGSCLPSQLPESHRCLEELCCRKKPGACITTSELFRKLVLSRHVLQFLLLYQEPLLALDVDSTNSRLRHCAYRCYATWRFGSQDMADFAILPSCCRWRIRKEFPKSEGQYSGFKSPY
The assay is described as follows: Ethidium Accumulation Assay. Format: cell-based. The following applies: HEK293 cells stably expressing human recombinant P2X7; blocking 1 mM ATP response; typically mean of more than one measurement; 'about' values; read-out: pIC50 in the Ethidium Accumulation Assay or a slightly modified version thereof (converted). The method, then:
Studies were performed using NaCl assay buffer of the following composition: 140 mM NaCl, 10 mM HEPES [4-(2-hydroxyethyl)-1-piperazine-1-ethanesulfonic acid], 5 mM N-methyl-D-glucamine, 5.6 mM KCl, 10 mM D-glucose, 0.5 mM CaCl2(pH 7.4).
Human Embryonic Kidney (HEK) 293 cells, stably expressing human recombinant P2X7 receptors, were grown in poly-D-lysine pretreated 96 well plates for 18-24 hours. (The cloning of the human P2X7 receptor is described in U.S. Pat. No. 6,133,434, e.g. see Example 3 therein). The cells were washed twice with 350 μl of the assay buffer, before addition of 50 μl of the assay buffer containing the putative P2X7 receptor antagonist compound. (A small amount of dimethyl sulfoxide, for initially dissolving the compound, is optionally used and present in this 50 μl test compound sample.) The cells were then incubated at room temperature (19-21° C.) for 30 min before addition of ATP and ethidium (100 μM final assay concentration). The ATP concentration was chosen to be close to the EC80 for the receptor type and was 1 mM for studies on the human P2X7 receptor. Incubations were continued for 8 or 16 min and were terminated by addition of 25 μl of 1.3M sucrose containing 4 mM of the P2X7 receptor antagonist Reactive Black 5 (Aldrich). Cellular accumulation of ethidium was determined by measuring fluorescence (excitation wavelength of 530 nm and emission wavelength of 620 nm) from below the plate with a Can berra Packard Fluorocount (14 Station Road, Pangbourne, Reading, Berkshire RG8 7AN, United Kingdom) or a FlexStation II 384 from Molecular Molecular Devices (660-665 Eskdale Road, Wokingham, Berkshire RG41 5TS, United Kingdom). Antagonist plC50 values for blocking ATP responses were determined using iterative curve fitting techniques.
As to `CN1C(C(=O)NCc2ccc(F)cc2Cl)CCS1(=O)=O` (stereo not shown) [Example 3, N-[(2-chloro-4-fluorophenyl)methyl]-2-methyl-3-isothiazolidinecarboxamide 1,1-dioxide], the IC50 was 10 to 316 nM. For the molecule `CC(C)CN1C(C(=O)NCc2ccc(Cl)cc2Cl)CCS1(=O)=O` (stereo not shown) [Example 4, N-[(2,4-dichlorophenyl)methyl]-2-(2-methylpropyl)-3-isothiazolidinecarboxamide 1,1-dioxide], the IC50 is 10 to 316 nM. With `CC(C)CN1C(C(=O)NCc2ccccc2Cl)CCS1(=O)=O` (stereo not shown) [Example 11, N-[(2-chlorophenyl)methyl]-2-(2-methylpropyl)-3-isothiazolidinecarboxamide 1,1-dioxide], the IC50 is 3980 to 15800 nM.

As for `CN1C(C(=O)NCc2ccc(Cl)cc2Cl)CCS1(=O)=O` (stereo not shown) [Example 13, N-[(2,4-dichlorophenyl)methyl]-2-methyl-3-isothiazolidinecarboxamide 1,1-dioxide], the IC50 was 10 to 316 nM. Then `CCN1C(C(=O)NCc2ccc(F)cc2Cl)CCS1(=O)=O` (stereo not shown) [Example 15, N-[(2-chloro-4-fluorophenyl)methyl]-2-ethyl-3-isothiazolidinecarboxamide 1,1-dioxide], with 10 to 316 nM; and `Cc1c(Cl)cccc1CNC(=O)C1CCS(=O)(=O)N1C` (stereo not shown) [Example 17, N-[(3-chloro-2-methylphenyl)methyl]-2-methyl-3-isothiazolidinecarboxamide 1,1-dioxide], with 10 to 316 nM. `Cc1c(Cl)cccc1CNC(=O)C1CCS(=O)(=O)N1C(C)C` (stereo not shown) [Example 18, N-[(3-chloro-2-methylphenyl)methyl]-2-(1-methylethyl)-3-isothiazolidinecarboxamide 1,1-dioxide]: the IC50 was 10 to 316 nM. Then `CCN1C(C(=O)NCc2cccc(Cl)c2C)CCS1(=O)=O` (stereo not shown) [Example 20, N-[(3-chloro-2-methylphenyl)methyl]-2-ethyl-3-isothiazolidinecarboxamide 1,1-dioxide], with 10 to 316 nM; and `CCN1C(C(=O)NCc2ccc(F)cc2C(F)(F)F)CCS1(=O)=O` (stereo not shown) [Example 21, 2-ethyl-N-{[4-fluoro-2-(trifluoromethyl)phenyl]methyl}-3-isothiazolidinecarboxamide 1,1-dioxide], with 10 to 316 nM; and `CC(C)N1C(C(=O)NCc2ccc(F)cc2Cl)CCS1(=O)=O` (stereo not shown) [Example 22, N-[(2-chloro-4-fluorophenyl)methyl]-2-(1-methylethyl)-3-isothiazolidinecarboxamide 1,1-dioxide], with 10 to 316 nM. Regarding `CCN1C(C(=O)NCc2ccc(Cl)cc2Cl)CCS1(=O)=O` (stereo not shown) [Example 24, N-[(2,4-dichlorophenyl)methyl]-2-ethyl-3-isothiazolidinecarboxamide 1,1-dioxide], the IC50 was 10 to 316 nM. For the molecule `CC(C)N1C(C(=O)NCc2ccc(Cl)cc2Cl)CCS1(=O)=O` (stereo not shown) [Example 27, N-[(2,4-dichlorophenyl)methyl]-2-(1-methylethyl)-3-isothiazolidinecarboxamide 1,1-dioxide], the IC50 was 10 to 316 nM. As for `CN1C(C(=O)NCc2cccc(C(F)(F)F)c2Cl)CCS1(=O)=O` (stereo not shown) [Example 29, N-{[2-chloro-3-(trifluoromethyl)phenyl]methyl}-2-methyl-3-isothiazolidinecarboxamide 1,1-dioxide], the IC50 was 10 to 316 nM. `CN1C(C(=O)NCc2ccc(F)c(F)c2Cl)CCS1(=O)=O` (stereo not shown) [Example 30, N-[(2-chloro-3,4-difluorophenyl)methyl]-2-methyl-3-isothiazolidinecarboxamide 1,1-dioxide]: the IC50 is 10 to 316 nM. `CCN1C(C(=O)NCc2ccc(F)c(F)c2Cl)CCS1(=O)=O` (stereo not shown) [Example 31, N-[(2-chloro-3,4-difluorophenyl)methyl]-2-ethyl-3-isothiazolidinecarboxamide 1,1-dioxide]: the IC50 was 10 to 316 nM.

With `CCN1C(C(=O)NCc2cccc(C(F)(F)F)c2Cl)CCS1(=O)=O` (stereo not shown) [Example 32, N-{[2-chloro-3-(trifluoromethyl)phenyl]methyl}-2-ethyl-3-isothiazolidinecarboxamide 1,1-dioxide], the IC50 is 10 to 316 nM. In the case of `CN1C(C(=O)NCc2ccc(Cl)cc2Cl)CCCS1(=O)=O` (stereo not shown) [Example 35, N-[(2,4-dichlorophenyl)methyl]-2-methyltetrahydro-2H-1,2-thiazine-3-carboxamide 1,1-dioxide], the IC50 is 10 to 316 nM. Regarding `CCN1C(C(=O)NCc2ccc(Cl)cc2Cl)CCCS1(=O)=O` (stereo not shown) [Example 36, N-[(2,4-dichlorophenyl)methyl]-2-ethyltetrahydro-2H-1,2-thiazine-3-carboxamide 1,1-dioxide], the IC50 was 10 to 316 nM. With `CCN1C(C(=O)NCc2ccccc2Cl)CCCS1(=O)=O` (stereo not shown) [Example 39, N-[(2-chlorophenyl)methyl]-2-ethyltetrahydro-2H-1,2-thiazine-3-carboxamide 1,1-dioxide], the IC50 was 3980 to 15800 nM. As for `Cc1cccc(Cl)c1CNC(=O)C1CCCS(=O)(=O)N1C(C)C` (stereo not shown) [Example 41, N-[(2-chloro-6-methylphenyl)methyl]-2-(1-methylethyl)tetrahydro-2H-1,2-thiazine-3-carboxamide 1,1-dioxide], the IC50 is 3980 to 15800 nM.

Turning to `CC(C)N1C(C(=O)NCc2ccc(F)cc2Cl)CCCS1(=O)=O` (stereo not shown) [Example 43, N-[(2-chloro-4-fluorophenyl)methyl]-2-(1-methylethyl)tetrahydro-2H-1,2-thiazine-3-carboxamide 1,1-dioxide], the IC50 is 3980 to 15800 nM.

`CC(C)N1C(C(=O)NCc2ccccc2Cl)CCCS1(=O)=O` (stereo not shown) [Example 44, N-[(2-chlorophenyl)methyl]-2-(1-methylethyl)tetrahydro-2H-1,2-thiazine-3-carboxamide 1,1-dioxide]: the IC50 is 3980 to 15800 nM.

As to `CC(C)N1C(C(=O)NCc2ccc(F)c(F)c2F)CCCS1(=O)=O` (stereo not shown) [Example 46, 2-(1-methylethyl)-N-[(2,3,4-trifluorophenyl)methyl]tetrahydro-2H-1,2-thiazine-3-carboxamide 1,1-dioxide], the IC50 is 3980 to 15800 nM.

As to `CC(C)N1C(C(=O)NCc2ccc(F)cc2C(F)(F)F)CCCS1(=O)=O` (stereo not shown) [Example 47, N-{[4-fluoro-2-(trifluoromethyl)phenyl]methyl}-2-(1-methylethyl)tetrahydro-2H-1,2-thiazine-3-carboxamide 1,1-dioxide], the IC50 was 3980 to 15800 nM.

For the molecule `CN1C(C(=O)NCc2ccc(F)cc2C(F)(F)F)CCCS1(=O)=O` (stereo not shown) [Example 48, N-{[4-fluoro-2-(trifluoromethyl)phenyl]methyl}-2-methyltetrahydro-2H-1,2-thiazine-3-carboxamide 1,1-dioxide], the IC50 is 3980 to 15800 nM.
